Measured values: US9994852B2, “Oligonucleotide compositions and uses thereof” (MIRAGEN THERAPEUTICS, INC., priority 2015, dated 2018)
“Also recorded” adds a separate entry of the source. l = locked nucleic acid (LNA); d = 2'-deoxy (DNA)

Tests used:
Assay type in all cases: cell-based, human
miR-155-5p [1] = experiment: Real time PCR of miR-155 direct target genes in CTCL cell lines treated with antimiR-155 (passive uptake); settings: for gene expression signature of four direct targets of miR-155-5p vs untreated cells: MJ and HuT102 cells, 72 hours; for gene expression signature of four direct targets of miR-155-5p vs untreated cells / antimiR activity by four-gene signature (Bach1, Jarid2, Picalm, Ship1): 10 μM; for target de-repression: HuT102 and MyLa cell lines; for antimiR activity by four-gene signature (Bach1, Jarid2, Picalm, Ship1): cumulative data across 2 μM, 50 μM and three mycosis fungoides cell lines
Protocol: CTCL cell lines were cultured in complete growth medium with the addition of antimiR-155 compound 1 (SEQ ID NO: 27), compound 2 (SEQ ID NO: 22), compound 3 (SEQ ID NO: 23), and compound 4 (SEQ ID NO: 25) at concentrations ranging from 2 μM to 50 μM. The antimiRs were added to the medium without any additional components to enhance cellular uptake. Cells were harvested after 72 hours of treatment and total RNA was purified. Real time PCR was performed for 13 direct gene targets of miR-155 (Worm et al. 2009; O'Connell et al. 2010; Zhang et al. 2012; and miRagen unpublished data). The relative fold-change in the expression of the 13 genes in the antimiR-treated cells compared to the untreated cells was calculated. […] Four predicted direct targets that lacked expression in at least one cell line were omitted. The gene expression fold-changes were log 10-transformed, plotted on a grayscale, representing the highest relative increase in gene expression, and conversely, the greatest reduction in gene expression.
Four direct gene targets of miR-155-5p (Bach1, Jarid2, Picalm, and Ship1) were chosen for additional analysis, as these four genes were modulated by antimiR-155 in all three mycosis fungoides cell lines (MJ, HuT102, and My-La). These genes were chosen to represent the gene expression signature for antimiR activity in vitro. Additionally, the four-gene signature was used to compare the activity of the antimiR compounds. These gene changes were reproducible over three independent experiments with cells of varying passage numbers. FIGS. 3, 4, 5, 6, and 7 show the fold-change results of this four-gene signature in the HuT102, MJ, HH, My-La, and Hut78 cell lines, respectively. * p-value<0.0001 vs untreated by nonparametric Mann-Whitney test. The Mann-Whitney test was chosen because the variances are unequal between the treatments compared to untreated cells.
The control oligonucleotide was a 14-nucleotide antimiR targeting a C. elegans miRNA not expressed in mammals (control 1). The second oligo is a scramble of the 14-nucleotide sequence of antimiR-155 compound 4 (control 2). The MJ and HuT102 cell lines were incubated with 10 μM antimiR-155 compounds 3 (SEQ ID NO: 23) or 4 (SEQ ID NO: 25) or the two control oligos for 72 hours.

miR-155 = experiment: Dual luciferase reporter assay with miR-155 binding site in HeLa cells; settings: 10 nM miR-155 mimic, 2 nM oligonucleotide
Excerpt: To assess the activity of a miR-155 inhibitor, a dual luciferase reporter assay system was used. In brief, the binding site for miR-155 was cloned into the 3′ UTR of the Renilla luciferase gene located within the commercially-available psiCHECK-2 vector system (Promega). In the absence of a miR-155 inhibitor, the expression of Renilla luciferase protein is repressed by a miR-155 mimic. In the presence of a miR-155 inhibitor, the expression of Renilla luciferase protein is de-repressed. […] Expression of either Renilla or firefly luciferase is measured through detection of light emitted by the luciferase protein.
50 ng of the dual luciferase reporter plasmid containing the miR-155 binding site was transfected into HeLa cells without a miR-155 mimic (“Reporter” only), with 10 nM miR-155 mimic (“Reporter+mimic”), with 10 nM miR-155 mimic and 2 nM of the control oligonucleotide, or with 10 nM miR-155 mimic and 2 nM of a test miR-155 oligonucleotide inhibitor of 11-14 nucleotide lengths (Table 4). The miR-155 mimic was purchased from Dharmacon (miRIDIAN microRNA Human hsa-miR-155-5p mimic; Accession number MIMAT0000646; catalog # C-300647-05-0005) and contains the mature miRNA sequence: -[…]- (SEQ ID NO: 121). The control oligonucleotide used in the experiment had the following sequence: 5′-lCs.dTs.dAs.lGs.dAs.lAs.dAs.lGslAs.dGs.lTs.dAs.lGs.lA-3′ (SEQ ID NO: 122).

My-La cells [2] = experiment: Caspase 3/7 activity in My-La cells; settings: over time
Protocol: (§1) FIGS. 17A and 17B show proliferation and activation of caspase 3/7 over time with compounds 3 (SEQ ID NO: 23) and 4 (SEQ ID NO: 25).
(§2) In addition to a time course, a dose titration of antimiR-155 compounds in My-La cells was performed with ATP and caspase 3/7 measurements after eight days of treatment (FIGS. 18A and 18B, respectively).

HuT102 cells [3] = experiment: Apoptosis by caspase 3/7 activity in HuT102 cells; settings: for apoptosis (caspase 3/7 activity normalized to ATP): over time
Protocol: (§3) Since the level of ATP correlates directly with cell number, ATP was measured to determine the cell number. […] The reduction in cell number was accompanied by an increase in apoptosis as measured by caspase 3/7 activity (FIG. 14B). The caspase 3 and 7 proteins are members of the cysteine aspartic acid-specific protease (caspase) family. The caspase family plays key effector roles in apoptosis in mammalian cells. Caspase activity was normalized to ATP levels, as all cells have a low level of basal caspase activity that can confound the results if not normalized appropriately.
(§4) In addition to a time course, a dose titration of antimiR-155 compounds in HuT102 cells was performed with ATP and caspase 3/7 measurements performed after eight days of treatment (FIGS. 15A and 15B, respectively).

My-La cells [4] = experiment: Proliferation of My-La cells (ATP)
Protocol: as §1, §2

HuT102 cells [5] = experiment: Proliferation of HuT102 cells (cell number by ATP level); settings: for proliferation (cell number by ATP): over time
Protocol: as §3, §4

miR-155-5p [6] = experiment: Whole genome expression profiling of CTCL cell lines treated with antimiR-155
Protocol: To gain a more complete understanding of the molecular consequences of miR-155 inhibition in mycosis fungoides cell lines, whole genome transcriptome profiling was performed on MJ and HuT102 cell lines treated with antimiR-155 compounds 3 (SEQ ID NO: 23) or 4 (SEQ ID NO: 25) for 4 days (96 hours) or 8 days. The statistically-significant gene expression signature was defined by one-way ANOVA for antimiR-treated cells compared to untreated cells at the same time point. […] The fold-change results are shown in FIGS. 9 and 10 as heat maps, as described for FIG. 2.
The gene expression profile common to both cell lines and both compounds at Day 4 was analyzed for the enrichment of miR-155-5p seed-matched gene targets (8-, 7-, and 6-nucleotide binding sites). The fold-change of these genes is represented in a heat map in FIG. 11. […] The gene signature was also analyzed using the DAVID bioinformatic resource for functional gene annotation enrichment (Huang da et al., 2009). There was no significant enrichment of Gene Ontology database terms as defined by a Benjamini-corrected p-value of <0.01.
The gene expression signature common to both cell lines and both compounds at Day 8 (677 genes in total) was subjected to analysis for enrichment of seed-matched gene targets and for functional gene annotation.
The activity of antimiR-155 compound 4 (SEQ ID NO: 25) was further investigated by treating the third mycosis fungoides cell line, MyLa, with compound 4 (SEQ ID NO: 25) for 4 days and 8 days and profiling the changes in gene expression. To test the specificity of compound 4 (SEQ ID NO: 25), cells of the Sézary syndrome cell line (HuT78) were treated with compound 4 (SEQ ID NO: 25) for 8 days and the changes in gene expression were profiled. Genes that are statistically changed with a false discovery rate (FDR) corrected p-value of <0.05 in response to compound 4 (SEQ ID NO: 25) in three mycosis fungoides cell lines, HuT102, MJ, and My-La, are depicted in the heat map as described above. The total number of genes in the heat map is 324. […]

HuT102 cells [7] = experiment: AntimiR-155 combined with HDAC inhibitor SAHA: caspase 3/7 activity in HuT102 cells; settings: 10 μM compound combined with 0.25 or 0.5 μM SAHA
Protocol: Vorinostat (chemical name: SAHA) is a standard-of-care epigenetic therapy for patients with advanced mycosis fungoides. However, the side-effects of pan-HDAC inhibitors are well-described. To determine whether a combination therapy might show enhanced activity compared to treatment with individual compounds, HuT102 cells were treated with a sub-efficacious dose of SAHA combined with antimiR-155.
HuT102 cells were treated with 0.25 μM SAHA and 10 μM compound 3 (SEQ ID NO: 23) or 4 (SEQ ID NO: 25), individually or in combination. Cells were harvested daily to measure ATP levels and caspase 3/7 activity. A similar experiment was performed with 0.50 μM SAHA.
FIGS. 20A and 20B show the effect on caspase 3/7 activity.

| Substance | gene expression signature of four direct targets of miR-155-5p vs untreated cells (miR-155-5p [1]) | de-repression of Renilla luciferase expression (miR-155) | target de-repression (miR-155-5p [1]) | antimiR activity by four-gene signature (Bach1, Jarid2, Picalm, Ship1) (miR-155-5p [1]) | activation of caspase 3/7 (My-La cells [2]) | apoptosis (caspase 3/7 activity normalized to ATP) (HuT102 cells [3]) | proliferation (ATP) (My-La cells [4]; over time) | proliferation (cell number by ATP) (HuT102 cells [5]) | number of genes up- or down-regulated in all three mycosis fungoides cell lines (Table 2) (miR-155-5p [6]; HuT102, MJ, MyLa, Day 4 or Day 8) | magnitude of gene regulation (whole genome heat map) (miR-155-5p [6]; MJ and HuT102 cells, 4 days and 8 days) | change in gene expression (miR-155-5p [6]; Sézary syndrome cell line HuT78, 8 days) | caspase 3/7 activity (HuT102 cells [3]; day 8 of treatment) | apoptosis (caspase 3/7 activity normalized to ATP) (HuT102 cells [3]; listed as Compound 4) | proliferation (ATP) (My-La cells [4]; dose titration, eight days of treatment) | proliferation (ATP) (HuT102 cells [5]; day 8 of treatment) | apoptosis (caspase 3/7 activity) (HuT102 cells [7]) |
| --- | --- | --- | --- | --- | --- | --- | --- | --- | --- | --- | --- | --- | --- | --- | --- | --- |
| 5′-lCs.dGs.lAs.lTs.lTs.dAs.lGs.dCs.lAs.lTs.lTs.lA-3′ (CGATTAGCATTA; sugars from the 5' end ldllldldllll, all phosphorothioate, methylation of C not given here) [compound 3] | statistically significantly different from that of untreated cells | – | – | – | – | – | – | – | – | – | – | – | – | – | – | – |
| 5′-lCs.dTs.dAs.lGs.dAs.lAs.dAs.lGslAs.dGs.lTs.dAs.lGs.lA-3′ (CTAGAAAGAGTAGA; sugars from the 5' end lddldldlldldll, all phosphorothioate, methylation of C not given here) [control oligonucleotide, control oligonucleotide used in the dual luciferase reporter experiment] | – | did not de-repress the expression of luciferase | – | – | – | – | – | – | – | – | – | – | – | – | – | – |
| 5′-lCs.dGs.lAs.lTs.lTs.lAs.lGs.dCs.lAs.lTs.lTs.lA-3′ (CGATTAGCATTA; sugars from the 5' end l1 d1 l5 d1 l4, all phosphorothioate, methylation of C not given here) [compound 2] | – | – | greater target de-repression than antimiR-155 compound 3 (SEQ ID NO: 23) | more active than compounds 1 (SEQ ID NO: 27) and 3 (SEQ ID NO: 23) | greater apoptotic activity | greater apoptotic activity | greater inhibition of proliferation | greater inhibition of proliferation | – | – | – | – | – | – | – | – |
| 5′-lCs.dAs.lCs.dGs.dAs.lTs.lTs.dAs.lGs.dCs.lAs.lTs.lTs.lA-3′ (CACGATTAGCATTA; sugars from the 5' end ldlddlldldllll, all phosphorothioate, methylation of C not given here) [compound 4] | statistically significantly different from that of untreated cells | – | greater target de-repression than antimiR-155 compound 3 (SEQ ID NO: 23) | more active than compounds 1 (SEQ ID NO: 27) and 3 (SEQ ID NO: 23) | greater apoptotic activity; also recorded: greater activity compared to compound 3 (SEQ ID NO: 23) | greater apoptotic activity | greater inhibition of proliferation; also recorded: greater activity compared to compound 3 (SEQ ID NO: 23) | greater inhibition of proliferation; also recorded: comparable to that seen with bexarotene | 587 | greater magnitude of gene regulation in both cell lines and at both time points | did not show much change in the gene expression | confirm the inhibitory potential | greater induction of apoptosis than bexarotene | further confirm the inhibitory potential | confirm the inhibitory potential | increased apoptosis compared to each treatment alone |
